PMC8343220, “The selectivity of α‐adrenoceptor agonists for the human α1A, α1B, and α1D‐adrenoceptors” (Pharmacology Research & Perspectives, 2021)
Several values for one entry are separate records, joined by “and”; a condition that tells them apart may be missing. Equal entries are not always repeated. Where two headings read alike, the source gives them in different places.

Columns and labels:
human α1B‐adrenoceptor [1] = target: T1, human α1B‐adrenoceptor (Homo sapiens, UniProt P35368); assay: ERK1/2‐phosphorylation (Surefire Alphascreen), CHO‐α1B cells; assay type: cell-based
T1 construct: expressed in transfected cells; host or cells: CHO-K1
T1 sequence (P35368 1-520): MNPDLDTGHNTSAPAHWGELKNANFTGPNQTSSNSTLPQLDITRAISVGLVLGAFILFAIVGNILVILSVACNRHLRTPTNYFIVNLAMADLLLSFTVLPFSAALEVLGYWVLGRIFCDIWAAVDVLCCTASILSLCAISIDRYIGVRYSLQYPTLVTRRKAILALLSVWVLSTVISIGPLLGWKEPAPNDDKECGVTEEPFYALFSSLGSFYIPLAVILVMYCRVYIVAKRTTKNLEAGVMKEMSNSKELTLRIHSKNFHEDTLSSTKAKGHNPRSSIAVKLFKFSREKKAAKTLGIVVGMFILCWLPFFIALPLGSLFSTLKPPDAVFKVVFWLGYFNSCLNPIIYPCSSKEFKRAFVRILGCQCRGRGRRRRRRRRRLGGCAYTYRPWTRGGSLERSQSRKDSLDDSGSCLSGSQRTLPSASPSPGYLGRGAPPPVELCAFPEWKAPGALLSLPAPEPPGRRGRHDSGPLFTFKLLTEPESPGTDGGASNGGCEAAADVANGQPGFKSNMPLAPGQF

human α1A‐adrenoceptor [2] = target: T2, human α1A‐adrenoceptor (Homo sapiens, UniProt P35348); assay: ^3H‐cAMP accumulation, CHO‐α1A cells; assay type: cell-based; settings: CHO‐α1A cells; for cAMP accumulation % forskolin: % of 10 µM forskolin response
T2 construct: expressed in transfected cells; host or cells: CHO-K1
T2 sequence (P35348 1-466): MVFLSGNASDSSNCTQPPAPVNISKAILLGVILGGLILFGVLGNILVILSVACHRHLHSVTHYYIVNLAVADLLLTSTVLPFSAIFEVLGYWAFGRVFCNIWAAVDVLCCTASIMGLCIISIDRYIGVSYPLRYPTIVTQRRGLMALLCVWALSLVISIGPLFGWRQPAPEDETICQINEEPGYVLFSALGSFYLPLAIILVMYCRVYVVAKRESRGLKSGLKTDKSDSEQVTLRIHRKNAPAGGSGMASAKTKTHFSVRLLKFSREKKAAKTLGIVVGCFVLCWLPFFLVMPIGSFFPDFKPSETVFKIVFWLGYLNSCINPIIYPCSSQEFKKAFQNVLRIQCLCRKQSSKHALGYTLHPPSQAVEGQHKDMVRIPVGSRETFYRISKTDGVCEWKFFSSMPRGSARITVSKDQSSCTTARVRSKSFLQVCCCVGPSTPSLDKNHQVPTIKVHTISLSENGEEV

human α1A‐adrenoceptor [3] = target: T2, human α1A‐adrenoceptor; assay: ERK1/2‐phosphorylation (Surefire Alphascreen), CHO‐α1A cells; assay type: cell-based; settings: CHO‐α1A cells, ^a bi‐phasic: initial stimulatory part; for ERK1/2‐phosphorylation % PDBu: % of 10 µM PDBu
human α1B‐adrenoceptor [4] = target: T1, human α1B‐adrenoceptor; assay: Intracellular free calcium mobilization, CHO‐α1B cells; assay type: cell-based; settings: CHO‐α1B cells; for Intracellular calcium release % ionomycin: maximal response as % of 10 µM ionomycin response
human α1B‐adrenoceptor [5] = target: T1, human α1B‐adrenoceptor; assay: ^3H‐cAMP accumulation, CHO‐α1B cells; assay type: cell-based; settings: CHO‐α1B cells; for cAMP accumulation % forskolin: % forskolin maximum response
[6] = target: T3, human α1D‐adrenoceptor (full length) (Homo sapiens, UniProt P25100); assay: ^3H‐cAMP accumulation in the presence of 10 μM forskolin, CHO‐α1D cells; assay type: cell-based; settings: CHO‐α1D cells
T3 construct: human α1D‐adrenoceptor (full length) were used; expressed in transfected cells; host or cells: CHO-K1
T3 sequence (P25100 1-572): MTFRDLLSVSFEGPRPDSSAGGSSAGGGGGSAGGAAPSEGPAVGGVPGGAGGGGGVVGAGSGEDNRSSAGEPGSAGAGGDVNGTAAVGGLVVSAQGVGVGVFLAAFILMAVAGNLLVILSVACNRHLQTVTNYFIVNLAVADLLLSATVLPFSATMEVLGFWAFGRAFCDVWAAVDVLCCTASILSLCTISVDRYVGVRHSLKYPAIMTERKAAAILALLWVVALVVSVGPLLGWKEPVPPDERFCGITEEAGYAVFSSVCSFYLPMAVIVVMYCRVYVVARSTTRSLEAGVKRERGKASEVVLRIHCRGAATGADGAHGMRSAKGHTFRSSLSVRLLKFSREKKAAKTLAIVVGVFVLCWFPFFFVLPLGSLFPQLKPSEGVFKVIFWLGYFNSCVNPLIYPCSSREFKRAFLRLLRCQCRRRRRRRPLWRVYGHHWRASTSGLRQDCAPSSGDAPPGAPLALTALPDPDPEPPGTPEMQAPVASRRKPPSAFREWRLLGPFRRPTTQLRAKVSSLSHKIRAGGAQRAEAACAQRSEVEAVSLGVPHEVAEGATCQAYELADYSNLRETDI

[7] = target: T3, human α1D‐adrenoceptor (full length); assay: Intracellular free calcium mobilization, CHO‐α1D cells; assay type: cell-based; settings: CHO‐α1D cells; for EC50: read-out: Intracellular calcium release Log EC50 (converted); for Intracellular calcium release % ionomycin: maximal response as % of 10 µM ionomycin
[8] = target: T3, human α1D‐adrenoceptor (full length); assay: ERK1/2‐phosphorylation (Surefire Alphascreen), CHO‐α1D cells; assay type: cell-based; settings: for EC50: log values given negative, read-out: ERK1/2‐phosphorylation Log EC50 (converted)
[9] = target: T3, human α1D‐adrenoceptor (full length); assay: ^3H‐cAMP accumulation, CHO‐α1D cells; assay type: cell-based; settings: cAMP accumulation without forskolin
human α1A‐adrenoceptor [10] = target: T2, human α1A‐adrenoceptor; assay: Intracellular free calcium mobilization, CHO‐α1A cells; assay type: cell-based; settings: CHO‐α1A cells; for Intracellular calcium release % ionomycin: maximal response as % of 10 µM ionomycin
[11] = target: T3, human α1D‐adrenoceptor (full length); assay: ^3H‐prazosin whole‐cell radioligand binding, CHO‐α1D cells; settings: CHO‐α1D cells
human α1B‐adrenoceptor [12] = target: T1, human α1B‐adrenoceptor; assay: ^3H‐prazosin whole‐cell radioligand binding, CHO‐α1B cells; settings: CHO‐α1B cells
human α1A‐adrenoceptor [13] = target: T2, human α1A‐adrenoceptor; assay: ^3H‐prazosin whole‐cell radioligand binding, CHO‐α1A cells
[14] = system: parental CHO cell line without any transfected receptors; assay: Forskolin‐stimulated cAMP accumulation, parent CHO cells without transfected receptors; assay type: cell-based, Chinese hamster; settings: CHO cells without transfected receptors; in presence of forskolin
[15] = system: parental CHO cell line without any transfected receptors; assay: ERK1/2‐phosphorylation, parent CHO cells without transfected receptors; assay type: cell-based, Chinese hamster; settings: for ERK1/2-phosphorylation % PDBu: CHO cells without transfected receptors, maximal response as % of PDBu (10μM) response, mean ± s.e.m.
human α1A‐adrenoceptor [16] = target: T2, human α1A‐adrenoceptor; assay: ^3H‐cAMP accumulation in the presence of 10 μM forskolin, CHO‐α1A cells; assay type: cell-based
human α1B‐adrenoceptor [17] = target: T1, human α1B‐adrenoceptor; assay: ^3H‐cAMP accumulation in the presence of 10 μM forskolin, CHO‐α1B cells; assay type: cell-based; settings: CHO‐α1B cells; in presence of forskolin
[18] = CHO‐α1B cells, maximal response as % PDBu response, for bi‐phasic responses the initial stimulatory part
[19] = in presence of forskolin, log values given negative
[20] = CHO‐α1D cells, maximal response as % of PDBu
[21] = given as log KD (negative), mean ± SEM, 'early plateau' = specific binding not fully inhibited

SMILES	ERK1/2‐phosphorylation % PDBu (human α1B‐adrenoceptor [1]; [18]) [%]	cAMP accumulation % forskolin (human α1A‐adrenoceptor [2])	ERK1/2‐phosphorylation % PDBu (human α1A‐adrenoceptor [3])	Intracellular calcium release % ionomycin (human α1B‐adrenoceptor [4]) [%]	cAMP accumulation % forskolin (human α1B‐adrenoceptor [5]) [%]	EC50 [6, 19] [µM]	EC50 ([7]; log values given negative) [µM]	EC50 ([8]; CHO‐α1D cells) [µM]	ERK1/2‐phosphorylation % PDBu [8, 20] [%]	cAMP Log EC50 [9]	Intracellular calcium release % ionomycin (human α1A‐adrenoceptor [10]) [%]	cAMP accumulation (in presence of forskolin) Log EC50 [14]	Intracellular calcium release % ionomycin [7] [%]	ERK1/2-phosphorylation % PDBu [15]	other results
CNC[C@H](O)c1cccc(O)c1 [R‐phenylephrine]	77.0 ± 4.8	132.5 ± 4.5%	84.5 ± 4.5%	67.0 ± 3.3	86.2 ± 5.3	0.17	0.0631	0.676	15.8 ± 2.9	No response	58.3 ± 2.9	–	–	–	Kd [11, 21]: 22.4 µM
NCC(O)c1ccc(O)cc1 (stereo not drawn) [Octopamine]	76.1 ± 6.8	–	81.2 ± 6.8%	54.9 ± 2.9	–	1.82	6.31	18.6	–	No response	57.5 ± 2.1	No response	–	–	IC50 (human α1B‐adrenoceptor [12]; printed as IC50> log value): > 1000 µM; EC50 (human α1B‐adrenoceptor [1]; CHO‐α1B cells, for bi‐phasic responses the initial stimulatory part, read-out: ERK1/2‐phosphorylation Log EC50 (converted)): 7.76 µM; cAMP accumulation % forskolin at 100 µM (human α1A‐adrenoceptor [2]; response at 100 μM ligand, no EC50 obtained): 18.0 ± 1.5%; EC50 (human α1A‐adrenoceptor [3]; 2–4 min, ^b also active in parent CHO cells, read-out: ERK1/2‐phosphorylation Log EC50 (converted)): 4.17 µM; Kd (human α1A‐adrenoceptor [13]; Log KD α1A, ^3H‐prazosin whole cell binding, CHO‐α1A cells, given as log KD (negative), mean ± SEM): 363 µM; Affinity selectivity ratio α1A vs α1B (human α1A‐adrenoceptor [13]; higher affinity for α1A than α1B): >2.8 fold; Affinity selectivity ratio α1A vs α1D (human α1A‐adrenoceptor [13]; higher affinity for α1A than α1D): >2.8 fold; EC50 (human α1B‐adrenoceptor [4]; given as log EC50 (negative numbers), read-out: Intracellular calcium release Log EC50 (converted)): 1.23 µM; Log efficacy ratio KD /EC50 (human α1B‐adrenoceptor [4]; intrinsic efficacy ratio, KD from binding / EC50 calcium, log): >2.91; cAMP (in presence of forskolin) Fold increase ([6]; fold increase of the forskolin response): 1.17 ± 0.06; Log efficacy ratio KD /EC50 ([7]; intrinsic efficacy ratio, binding KD / calcium EC50): >2.20; Emax at 100 µM ([15]; Cricetulus griseus, CHO, read-out: ERK1/2-phosphorylation % PDBu at 100μM): 2.9 ± 1.8%; ERK1/2‐phosphorylation % PDBu [8]: 14.5 ± 5.9%; Log efficacy ratio KD /EC50 (human α1A‐adrenoceptor [10]; binding KD and calcium EC50): 2.66; EC50 (human α1A‐adrenoceptor [10]; given as log EC50 (negative), read-out: Intracellular calcium release Log EC50 (converted)): 0.794 µM; cAMP accumulation (in presence of forskolin) Fold increase at 100 µM (human α1A‐adrenoceptor [16]; CHO‐α1A cells, response at 100 μM ligand, no EC50 obtained): 1.89 ± 0.06 fold; 3H‐prazosin binding log IC50 (bound, printed in Log KD column) ([11]; whole‐cell binding, given as IC50 > log value): IC50 > −3; IC50 ([11]; printed as IC50> log value): > 1000 µM
CNC[C@H](O)c1ccc(O)c(O)c1 [Adrenaline]	–	164% and 164.0 ± 7.3%	71.3% and 71.3 ± 7.7%	–	172.1 ± 11.3	0.871	0.0182	0.182	32.2 ± 4.0	No response	58.9 ± 3.7	No response	30.3 ± 2.3	No response	ERK1/2‐phosphorylation % PDBu (human α1B‐adrenoceptor [1]): 76.6 ± 9.0%; Intracellular calcium release % ionomycin (human α1A‐adrenoceptor [10]; listed as adrenaline): 58.9%; Gi‐mediated inhibition of forskolin‐stimulated cAMP, CHO‐α1A cells (human α1A‐adrenoceptor [16]): did not inhibit cAMP accumulation; Kd ([11]; Log KD α1D, ^3H‐prazosin whole cell binding, given as log KD (negative), mean ± SEM, 'early plateau' = specific binding not fully inhibited): 6.46 µM
CS(=O)(=O)Nc1c(O)ccc2c1CCCC2C1=NCCN1 (stereo not drawn) [A61603]	54.5 ± 7.9	142.7 ± 8.7%	74.8 ± 4.5%	35.7 ± 3.7	5.3 ± 0.5	–	–	–	–	No response	61.0 ± 3.8	No response	12.0 ± 3.6	No response	IC50 (log), ^3H‐prazosin binding (human α1B‐adrenoceptor [12]; log IC50 bound given where no KD could be determined): IC50 > −4; Log IC50 α1B, ^3H‐prazosin whole cell binding (human α1B‐adrenoceptor [12]; printed as IC50> log value): IC50 >−4; Intracellular calcium release Log EC50 (human α1B‐adrenoceptor [4]; given as log EC50 (negative numbers)): −6.52 ± 0.08; cAMP accumulation Log EC50 (human α1B‐adrenoceptor [5]): −5.63 ± 0.18; cAMP (in presence of forskolin) Log EC50 [6, 19]: No response; Intracellular calcium release Log EC50 ([7]; log values given negative): −5.29 ± 0.12; cAMP accumulation (in presence of forskolin) Log EC50 (human α1B‐adrenoceptor [17]): −6.16 ± 0.09; ERK1/2‐phosphorylation % PDBu at 100 µM ([8]; CHO‐α1D cells, response at 100 µM ligand (no EC50 given)): 11.7 ± 2.9%; 3H‐prazosin binding Log KD ([11]; whole‐cell binding (from Table 1), log values given negative): −3.92; Log KD α1D, ^3H‐prazosin whole cell binding [11, 21]: −3.92 ± 0.11
